Assay results reported in patent US20230263773A1, “COMBINATION THERAPY WITH DEOXYURIDINE TRIPHOSPHATASE INHIBITORS” (CV6 Therapeutics (NI) Limited, priority 2020, published 2023).

Experiments:
Assay type in all cases: cell-based
HMGB1 = experiment: Extracellular release of HMGB1 into cell culture media by ELISA; details: 12.5 μM Compound A, 1 μM FUdR; 24 hours
Excerpt: Experimental Overview. High mobility group box 1 (HMGB1) is a nuclear non-histone chromatin-binding protein. The release of HMGB1 by immune cells or severely damaged cancer cells functions as an immunostimulatory chemokine and is a well-known damage-associated molecular pattern (DAMP). The release of HMGB1 during cell death is characteristic of immunogenic cell death, a sub-class of cell death that results in the potent stimulation of the innate and subsequently the stimulation of adaptive immune responses. HMGB1 functions as a pro-inflammatory cytokine-like factor and can form hetero-complexes with other immune regulators. HMGB1 binds to TLRs, RAGE and CXCR4 on immune cells stimulating chemotaxis and the secretion of pro-inflammatory factors. HCT116 colon carcinoma and JU77 mesothelioma cells were treated with vehicle control (DMSO), 12.5 μM Compound A, 1 μM FUdR, or the combination of 12.5 μM Compound A and 1 μM FUdR for 24 hours and the release of HMGB1 into the extracellular culture media was measured by ELISA.
Cell Line Model Selection and Preparation. The HCT116 cancer cell line was purchased from ATCC. JU77 cell line was a kind gift from Dr Dan Longley, QUB. Cells were cultured and expanded in humidified incubators at 5% CO2 until sufficient cells were available.
Drug Preparation and Treatments. All drugs/compounds were prepared freshly in cell culture media from 50 mM frozen stocks prior to treatment. Cells were seeded in 6-well culture dishes and allowed to adhere overnight before treatment with Compound A, FUdR, or Compound A in combination with FUdR. Additional wells were treated with doxorubicin to act as a positive inducer of HMGB1. Twenty-four hours after treatment, the media was aspirated and centrifuged (2500 rpm, 5 min, at 4° C.) to remove any cellular debris. The supernatant was collected for immediate processing or stored at −80° C. for later assay.
Detection of HMGB1 Release. HMGB1 was quantified using the HMGB1 ELISA kit (ST51011, IBL International). Enzyme conjugate (HMGB1 conjugated to peroxidase) and standard were reconstituted in 12 ml enzyme conjugate diluent, and 1 ml diluent buffer respectively and aliquots frozen at −80° C. until required. All reagents and samples were brought to room temperature immediately prior to use. A standard curve was prepared for the high sensitive detection range (0.313-10 ng/ml). 50 μl diluent buffer was pipetted into each well of the microtiter plate. 50 μl of standard, sample, positive control or negative control (diluent buffer) was pipetted, in duplicate, into respective wells as determined by the plate set up. The plate was covered with adhesive foil and incubated at 37° C. for 20 to 24 hours on an orbital shaker (450 rpm). Following the incubation period the incubation solution was discarded and the plate washed (5×300 μl per well). Excess wash buffer was removed by inversion on to a paper towel. 100 μl enzyme conjugate was added to each well, the plate covered with adhesive foil and incubated at 25° C. for 2 hours on an orbital shaker (450 rpm). Following the incubation the solution was discarded and the plate washed as before. Fresh color solution was prepared immediately prior to use and 100 μl added to each well using a multichannel pipette. The plate was then incubated for 30 minutes at room temperature. The color reaction was stopped by pipetting 100 μl of stop reagent to each well using a multichannel pipette. The plate was shaken gently to mix and the backs of the wells were cleaned using a lint-free tissue. The concentration of HMGB1 was determined on a CLARIOstar microplate reader by measuring the absorbance at 450 nm using a reference reading at 640 nm. Data was exported to Microsoft Excel for processing and statistical analysis consisting of one-way ANOVA with Tukey's Multiple Comparisons Test was performed in GraphPad Prism 6.

cytoplasmic dsDNA = experiment: Cytoplasmic dsDNA by fluorescence microscopy; details: 12.5 μM Compound A, 1 μM FUdR; 24 hours
Protocol: Experimental Overview. Aberrant host DNA metabolism as a result of failed cell division or genotoxic stress leads to the release of nuclear DNA into the cytoplasm and is a well-known damage-associated molecular pattern. The subsequent detection of cytoplasmic double-stranded DNA (dsDNA) by pattern recognition receptors triggers a variety of innate immune signaling and biological responses. HCT116 colon and PANC-1 pancreatic carcinoma cells were seeded on coverslips and treated with vehicle control (DMSO), 12.5 μM Compound A, 1 μM FUdR, or the combination of 12.5 μM Compound A and 1 μM FUdR for 24 hours. At 24 hours post-treatment cells were fixed and stained with an anti-dsDNA (double-stranded DNA) antibody and the nuclear stain DAPI. Immunofluorescence was detected and images acquired by fluorescence microscopy to quantify levels of dsDNA in the cytoplasm.
Cell lines, Drug Treatments and Fluorescence Microscopy. HCT116 colon and PANC-1 pancreatic carcinoma cells (5×10^4) were seeded onto glass coverslips within 24-well plates in relevant media. The following day, seeding media was removed and replaced with drug-containing media and incubated for 24 hours. At 24 […] hours post-treatment cells were fixed and processed. Briefly, cell membranes were permeabilised, incubated with FITC-conjugated dsDNA marker antibody (HYB331-01) from Santa Cruz Biotechnology, sc-58749 (1:500 dilution) and mounted onto slides with ProLong Gold antifade with DAPI (Invitrogen P36931). Images were acquired on a Nikon Fluorescent Microscope. Exposure time was selected for FITC using negative and positive controls and kept constant throughout image acquisition. Images were analyzed using ImageJ software. Cell nuclei were identified using DAPI staining. Intensity of cytoplasmic dsDNA staining was established by quantifying the intensity of the staining in the immediate area surrounding the nucleus. Software settings: Gaps to ring=3 and Ring size=25 (FIG. 16).

PD-L1 [1] = experiment: Cell-surface PD-L1 expression by flow cytometry; details: 12.5 μM Compound A, 1 μM FUdR; 24 hours
Protocol: (§1) Experimental Overview. Programmed death-ligand 1 (PD-L1) is a type 1 transmembrane protein that plays a major role in suppressing the innate and adaptive arms of the immune system. The PD-1/PD-L1 pathway represents an adaptive immune resistance mechanism exerted by tumor cells in response to endogenous immune anti-tumor activity and is a well-established therapeutic target in cancer therapy. Cancer cells were treated with vehicle control (DMSO), the fluoropyrimidine FUdR (also known as floxuridine) alone, Compound A alone, or the combination of Compound A and FUdR, and the expression level of the immune checkpoint protein PD-L1 was measured by both Western blotting and flow cytometry and compared to control. Cell lines assayed for total PD-L1 protein expression by Western blotting included, pancreatic cancer, PANC-1; non-small cell lung cancer, H460; colorectal cancer, HCT116; breast cancer, MCF-7; melanoma, MeWo. Two cell lines were advanced to analyze cell surface PD-L1 by flow cytometry, MCF-7 and PANC-1.
Cell Surface Flow Cytometry. Cells were seeded in 6-well plates and permitted to adhere overnight. Media was removed and replaced with media containing the indicated concentrations of Compound A, FUdR or a combination of both, positive control cells were treated with IFNγ. Cells were then incubated for 24 hours. At the conclusion of specified timepoints, cells were washed with PBS and removed from the plates using trypsin-EDTA. Cells were counted and 300,000 cells were washed in staining buffer and incubated in PD-L1 or IgG antibody on ice for 40 minutes. Cells were then washed in staining buffer twice and finally resuspended in 300 μL of staining buffer and transferred to BD Falcon™ round-bottom tube. Dot plot for FSC v SSC were used to gate cell population and doublets were excluded on FL-4 histogram height versus area/width. IgG isotype control stained sample was used to identify the positively stained population. Percentage positive population and median fluorescent intensity values were exported and analyzed in Microsoft Excel and GraphPad Prism 6. Statistical analysis consisted of one-way ANOVA with Tukey's multiple comparisons testing.

PD-L1 [2] = experiment: Total PD-L1 expression by Western blotting in cancer cell lines; details: 12.5 μM Compound A
Protocol: as §1
Western Blotting. Cells were cultured in the presence of the indicated concentrations of Compound A, 5-fluorodeoxyuridine (FUdR), or a combination of both in a P100 cell culture dishes for 12 or 24 hours. At the conclusion of specified time-points, cells were scraped in PBS containing NaF and Na3VO4, pelleted by centrifugation, washed with PBS and pelleted again. […] The concentration of the isolated supernatant was determined by BCA assay on a CLARIOstar microplate reader and the required volume of whole-cell lysate was denatured by the addition of Sample Buffer, Laemmli 2×Concentrate followed by boiling at 95° C. for 5 min. […] Images were analyzed in ImageJ to obtain PD-L1 relative density values which were normalised to relative density of loading control. Once the primary image acquisition was complete, the pre-cast gels and corresponding immunoblots were further imaged for total protein as a quality control measure following a UV-induced 1-minute reaction to produce fluorescence. […]

calreticulin = experiment: Cell surface calreticulin by flow cytometry; details: 6.25 μM Compound A, 1 μM FUdR, 500 nmol/L doxorubicin; 4 hours
Excerpt: Experimental Overview. Tumor cells undergoing immunogenic cell death (ICD) emit damage associated molecular patterns (DAMPs). ICD is a sub-class of cell death that results in the potent stimulation of the innate immune system and subsequently the stimulation of adaptive immune responses. The cell surface expression of calreticulin during cell death is one of several established DAMPs characteristic of immunogenic cell death. Calreticulin translocates from the endoplasmic reticulin to the cell membrane where it functions as a potent “eat me” signal for macrophages and dictates tumor antigen transfer and therefore the immunogenicity of cancer cell death. PANC1 pancreatic carcinoma cells were treated with vehicle control (DMSO), 6.25 μM Compound A, 1 μM FUdR, or the combination of 6.25 μM Compound A and 1 μM FUdR for 4 hours and the concentration of cell surface calreticulin was deteremined by flow cytometry.
Cell Line Model Selection and Preparation. The PANC1 pancreatic cancer cell line was purchased from ATCC. Cells were cultured and expanded in humidified incubators at 5% CO2 until sufficient cells were available.
Drug Preparation and Treatments. All drugs/compounds were prepared freshly in cell culture media from 50 mM frozen stocks prior to treatment. Cells were seeded in 6-well plates and permitted to adhere overnight. Media was removed and replaced with media containing 6.25 μM Compound A, 1 μM FUdR or a combination of 6.25 μM Compound A and 1 μM FUdR. […]
Detection of Cell Surface Calreticulin. Cell surface calreticulin was quantified by flow cytometry. […] Cells were counted and 300,000 cells were washed in staining buffer and incubated in Calreticulin (D3E6) XP Alexa Fluor 488 Conjugate antibody (Cell Signaling) or IgG antibody (negative control antibody) on ice for 40 minutes. […] The IgG isotype control stained sample was used to correctly identify the positively stained population in which median fluorescence intensity was determined. Median fluorescence intensity values were exported and analyzed in Microsoft Excel and GraphPad Prism 6. […]

| SMILES | increase in concentration of HMGB1 in cell culture media compared to control, HCT116 cells (HMGB1) | increase in concentration of HMGB1 in cell culture media compared to control, JU77 cells (HMGB1) | increase in mean relative cytoplasmic DNA compared to vehicle-treated control, HCT116 cells (cytoplasmic dsDNA) | increase in mean relative cytoplasmic DNA compared to vehicle-treated control, PANC-1 cells (cytoplasmic dsDNA) | increase in cell-surface PD-L1 expression compared to control, MCF-7 cells (PD-L1 [1]) | increase in cell-surface PD-L1 expression compared to control, PANC-1 cells (PD-L1 [1]) | total PD-L1 expression, all cell lines (PD-L1 [2]; MeWo, MCF-7, HCT116, H460, PANC-1, 12 and 24 hours) | increase in cell surface expression of calreticulin compared to control, PANC1 cells (calreticulin) | total PD-L1 expression in HCT116, MCF-7, PANC-1 and Mewo cell lines (PD-L1 [2]; 1 μM FUdR, 12 and 24 hours, compared to control) | total PD-L1 expression in H460 cell line (PD-L1 [2]; PD-L1 high at baseline, 1 μM FUdR) |
| --- | --- | --- | --- | --- | --- | --- | --- | --- | --- | --- |
| C[C@@H](NS(=O)(=O)CCCCCN1CC(=O)NC1=O)c1ccc(F)c(OCC2CC2)c1 [Compound A] | no significant difference | no significant difference | no statistically significant difference | 74% | No significant difference | the same as vehicle control cells | unchanged | no significant difference | – | – |
| O=c1[nH]c(=O)n([C@H]2C[C@H](O)[C@@H](CO)O2)cc1F [FUdR] | no significant difference | no significant difference | no statistically significant difference | 56% | 4.7 fold | ~10 fold | – | no significant difference | significant increase | did not induce |
| COc1cccc2c1C(=O)c1c(O)c3c(c(O)c1C2=O)C[C@@](O)(C(=O)CO)C[C@@H]3O[C@H]1C[C@H](N)[C@H](O)[C@H](C)O1 [doxorubicin] | 213% | failed to elicit any significant increase | – | – | – | – | – | 450% | – | – |
